Columns and labels:
male Sprague-Dawley rats = assay: Cholesterol Lowering Index: total blood cholesterol (clinical chemistry) in treated versus vehicle-treated rats; assay type: in vivo, rat; conditions: male rats; for Chol index (fold reduction): vs vehicle
From the text: Compound dosing was based on the acute dose LD50s recorded in published reference or literature sources. […] The MTD (maximum tolerated dose) was then selected as the dose at which the animals […] 5-10% body weight during the 5-day range finding study. […] In addition, the clinical observations must show no or mild clinical signs during the whole of the range-finding study. At the next highest dose, signs and symptoms of adverse effects and exceeding those of the MTD should be seen to occur. Should these criteria not be met, the range-finding study is repeated using a modified dose range.
(§1) After determination of the MTD and FED for a compound, each compound was dissolved in a vehicle for administration on day 1 of the study (additional daily doses were stored as frozen aliquots from this initial formulation). Each compound was administered to three individual male Sprague-Dawley rats for each of the two doses (MTD and FED) for one of four different times (0.25 day, 1 day, 3 days, and 5 days), yielding a total of up to 24 animals per compound study. Vehicle choice was based on solubility of the compound, effect of food on adsorption, and the vehicles used in the literature reports examined during the FED selection investigations, described above. Generally, the route and vehicle in which the FED was defined are used. When there was a choice of routes and vehicles, oral routes were chosen over injection routes. Many compounds, especially oncolytics, are only administerable intravenously. In such cases, the compound was administered as an intravenous formulation into the tail vein. Orally administered compounds were given dissolved in either water, 1% carboxymethycellulose (CMC) or corn oil. Intravenously and intraperitoneally administered compounds were given in 0.9% saline. Subcutaneously administered compounds were given in corn oil. Animal body weights were determined at 1 day and, where appropriate, at 4 days, before necropsy, and clinical observations were made on a daily basis. Control animals were dosed with vehicle only. Three male animals were used for each dose and time combination used for the compound treatment.
(§2) Tissue harvest and handling: After the allocated treatment time, the tissues from the animals were harvested. […] All the tissues collected were divided to provide samples for histopathological analyses, and the remainder of each tissue was then snap-frozen. […] The following blood constituents were measured: Blood Urea Nitrogen (BUN), Creatinine (CRE), Glucose (GLU), Alanine Transaminase (ALT), Aspartate Aminotrans-ferase (AST), Alkaline Phosphatase (ALP), Total Bilirubin (TBI), Sodium (SOD), Potassium (POT), Chloride (CHL), Phosphorus (PHO), Total Protein (TPR), Albumin (ALB), Cholesterol (CHO), Creatine Phosphokinase (CPK), Lactate Dehydrogenase (LDH), Carbon Dioxide (CO2), Uric Acid (UA), and Lipase. […] The parameters were measured using a Baker 9000 blood cell analysis instrument according to the manufactures instructions. The following blood constituents were measured: Leukocyte count (WBC), Differential Leukocyte counts, Erythrocyte count (RBC), Hemoglobin concentration (HGB), Hematocrit (HCT), Mean Corpuscular Volume (MCV), Mean Corpuscular Hemoglobin (MCH), Mean Corpuscular Hemoglobin Concentration (MCC), Thrombocyte Count (PLC). Histopathology: Histopathological analyses of hematoxylin and eosin-stained tissue sections were performed and peer-reviewed by board-certified (Diplomate, American College of Veterinary Pathologists) veterinary pathologists. Preparation of Enriched mRNA: Punch Biopsies were Taken from the Frozen Tissues and were completely homogenized before being processed using the MagNA Pure robot. (Roche Diagnostics Corp., Indianapolis, Ind.) in combination with the MagNA Pure LC RNA Isolation kit II (Roche Diagnostics Corp).

livers of rats = assay: Signature Projection Score (SPS): match of liver gene expression to the Cholesterol Reduction Signature; assay type: in vivo; conditions: dose 10 (mg/ml), rat liver, maximum of training treatments = 100
Description: as §1
as §2, with “Corp). The amount of lysis buffer was adjusted to allow 1 ml per 50 mg for liver tissue, or 1 ml per 80 mg for all other tissues. After complete homogenization and before loading of the samples into the 32-well MagNA Pure plate, the samples were syringed 5-6 times using a 20-gauge 3-ml syringe to ensure a smooth solution for robotic processing. Tissue sample processing was performed in duplicate wells (loading 150 μl of homogenized sample and 150 μl of additional lysis buffere to each well) of the MagNA Pure LC, which is programmed to extract mRNA using oligo-dT selection technology into a final elution volume of 100 μl. Poly A(+) RNA sample concentration was performed using a standard ethanol precipitation protocol in the presence of glycogen (50 μg/ml).” for “Corp).”

rat = conditions: rat, 4-7 daily dosing; cited from earlier work

C#C[C@]1(O)CC[C@H]2[C@@H]3CCc4cc(O)ccc4[C@H]3CC[C@@]21C [ETHINYLESTRADIOL, (17α)-norpregna-1,3,5(10)-trien-20-yne-3,17-diol]
Cholesterol Index (fold reduction) (male Sprague-Dawley rats; Table 4, dose 10, time point 5 days): 3.9 fold reduction
Chol index (fold reduction) (male Sprague-Dawley rats; dose 10, time 3 days): 3.65 fold reduction
Chol index (fold reduction) (male Sprague-Dawley rats; dose 10, time 5 days): 4.09 fold reduction
SPS (livers of rats; time point 1 day): 50
SPS (livers of rats; time point 5 days): 76.2
reduction in total cholesterol (rat): 89%

From patent publication US7422854B1, “Cholesterol reduction signature” (priority 2002, dated 2008)
